test system: cardiac hypertrophy; assay: not given; settings: Circulation, 86 (Suppl. I) I-177 (1992); cited from earlier work

Structure (SMILES)	suppression of cardiac hypertrophy
N=C(N)NC(=O)c1nc(Cl)c(N)nc1N [amiloride]	suppresses cardiac hypertrophy

test system: rat; assay: Effect on ischemic arrhythmia in the rat (left coronary artery ligated for 30 minutes); type: in vivo; settings: 1 mg/kg i.v., five minutes before the ligation; rats with arrhythmia / rats
Experimental: A rat was anesthetized with pentobarbital, and the left chest was opened under artificial respiration. Then, the left coronary artery was ligated for 30 minutes. The effect of the test compound on ischemic arrhythmia was examined. The test agent was administered intravenously (i.v.) five minutes before the ligation. The arrhythmias were evaluated according to the guidelines of the Lambeth conventions [Cardiovasc. Res., 22, 447-455 (1988)].

Structure (SMILES)	Incidence of arrhythmia, VF (ventricular fibrillation)	Incidence of arrhythmia, VT (ventricular tachycardia)
COc1cc(OC)c2c(C(=O)N=C(N)N)cc(-c3ccccc3)nc2c1 [Example 36, 2-phenyl-5,7-dimethoxyquinoline-4-carbonylguanidine]	0/4	2/4
COc1cc(OC)c2c(C(=O)N=C(N)N)cc(-c3ccccc3C)nc2c1 [Example 37, 2-(2'-methylphenyl)-5,7-dimethoxyquinoline-4-carbonylguanidine]	0/5	3/5
COc1ccc(OC)c2c(C(=O)N=C(N)N)cc(-c3ccccc3C)nc12 [Example 42, 2-(2'-methylphenyl)-5,8-dimethoxyquinoline-4-carbonylguanidine]	0/4	2/4

biological target: T1, NHE (Na^+ /H^+ exchanger) (Rattus norvegicus, UniProt P26431); assay: NHE inhibitory activity (recovery of the pH in cells after acid load, BCECF, rat mesenteric artery); type: cell-based; settings: Conc. 0.1 μM, read-out: Percent NHE inhibition (%)
T1 construct: A rat mesenteric artery was isolated; from tissue; host or cells: isolated rat mesenteric artery segments
T1 sequence (P26431 whole entry): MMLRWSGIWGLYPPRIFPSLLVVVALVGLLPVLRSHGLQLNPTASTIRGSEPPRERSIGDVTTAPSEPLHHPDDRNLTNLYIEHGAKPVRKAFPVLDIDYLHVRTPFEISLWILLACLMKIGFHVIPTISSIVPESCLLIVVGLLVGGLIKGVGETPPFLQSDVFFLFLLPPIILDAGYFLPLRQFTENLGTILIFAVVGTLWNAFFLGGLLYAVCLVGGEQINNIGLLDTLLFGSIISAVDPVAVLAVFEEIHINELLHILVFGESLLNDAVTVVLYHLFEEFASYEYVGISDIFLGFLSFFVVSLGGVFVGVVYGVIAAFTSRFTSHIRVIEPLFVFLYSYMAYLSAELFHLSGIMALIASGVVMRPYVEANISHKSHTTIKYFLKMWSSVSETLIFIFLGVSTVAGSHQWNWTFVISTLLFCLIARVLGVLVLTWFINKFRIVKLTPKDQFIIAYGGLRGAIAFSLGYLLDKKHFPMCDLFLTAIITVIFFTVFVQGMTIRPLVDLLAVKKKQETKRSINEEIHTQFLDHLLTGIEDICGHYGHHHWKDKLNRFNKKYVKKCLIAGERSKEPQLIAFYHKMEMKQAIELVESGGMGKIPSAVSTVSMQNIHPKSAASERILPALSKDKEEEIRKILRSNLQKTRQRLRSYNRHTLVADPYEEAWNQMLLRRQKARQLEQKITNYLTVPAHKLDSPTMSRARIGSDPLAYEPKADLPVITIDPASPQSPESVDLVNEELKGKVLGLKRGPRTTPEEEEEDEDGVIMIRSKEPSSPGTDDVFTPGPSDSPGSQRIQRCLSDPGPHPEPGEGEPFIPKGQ
T1 sequence (P61023 2-195 partner limits assumed): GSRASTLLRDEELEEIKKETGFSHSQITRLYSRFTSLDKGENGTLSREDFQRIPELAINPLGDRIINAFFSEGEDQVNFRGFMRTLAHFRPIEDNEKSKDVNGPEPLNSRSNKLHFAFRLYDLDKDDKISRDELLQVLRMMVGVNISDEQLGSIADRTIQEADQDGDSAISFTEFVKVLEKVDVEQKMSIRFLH
Experimental: The NHE inhibitory activity was measured by the following method using a pH in cells as an index.
A rat mesenteric artery was isolated, and was loaded with a pH-sensitive dye BCECF. Subsequently, the tissue segments were mounted in a bath of an intracellular ion concentration measurement device (CAF-110, manufactured by Japan Spectral Co., Ltd.). The pH in cells was measured in terms of a ratio of fluorescent intensities through 2-wavelength excitation of 495 nm (pH-sensitive wavelength)/450 nm (pH-non-sensitive wavelength).
The pH in cells was shifted into acid through pretreatment with 20 mM ammonium chloride to activate NHE. At this time, when Na^+ ions were absent in an external solution, the intracellular acidosis was maintained. When Na^+ ions were present in an external solution, the pH in cells was recovered to a control value. This recovery of the pH in cells was ascribable to the activation of NHE. The NHE inhibitory activity of the medication was examined depending on whether or not this recovery was suppressed. The percent NHE inhibition was calculated from a change in pH (ΔpH) measured by the above-mentioned method using the following formula.
Percent NHE inhibition (%)={1-ΔpH (in the presence of a medication)/ΔpH (in the absence of a medication)}×100
This test was conducted by the method of C. D. Foster et al. [Am. J. Physiol., 262, 31, H1651-H1655 (1992)]. For comparison, the test was conducted with respect to guanidinocarbonylisoquinoline derivatives described in JP A 6-211799 (Family: EP590455).

Structure (SMILES)	inhibition at 0.1 µM [%]
Cc1ccc(-c2cc(C(=O)N=C(N)N)c3ccccc3n2)cc1 [Example 2, 2-(4'-methylphenyl)quinoline-4-carbonylguanidine]	10.6
Cc1ccccc1-c1cc(C(=O)N=C(N)N)c2ccccc2n1 [Example 4, 2-(2'-methylphenyl)quinoline-4-carbonylguanidine]	49.2
CC(C)c1ccccc1-c1cc(C(=O)N=C(N)N)c2ccccc2n1 [Example 5, 2-(2'-isopropylphenyl)quinoline-4-carbonylguanidine]	29.3
Cc1ccc(-c2cc(C(=O)N=C(N)N)c3ccccc3n2)c(C)c1 [Example 6, 2-(2',4'-dimethylphenyl)quinoline-4-carbonylguanidine]	36.4
Cc1ccc(-c2cc(C(=O)N=C(N)N)c3ccccc3n2)cc1C [Example 7, 2-(3',4'-dimethylphenyl)quinoline-4-carbonylguanidine]	33.1
Cc1cc(C)c(-c2cc(C(=O)N=C(N)N)c3ccccc3n2)c(C)c1 [Example 8, 2-(2',4',6'-trimethylphenyl)quinoline-4-carbonylguanidine]	23.7
NC(N)=NC(=O)c1cc(-c2ccccc2C(F)(F)F)nc2ccccc12 [Example 11, 2-(2'-trifluoromethylphenyl)quinoline-4-carbonylguanidine]	22.7
NC(N)=NC(=O)c1cc(-c2ccc(F)cc2)nc2ccccc12 [Example 13, 2-(4'-fluorophenyl)quinoline-4-carbonylguanidine]	14.4
NC(N)=NC(=O)c1cc(-c2ccccc2Cl)nc2ccccc12 [Example 14, 2-(2'-chlorophenyl)quinoline-4-carbonylguanidine]	28.8
NC(N)=NC(=O)c1cc(-c2cccc([N+](=O)[O-])c2)nc2ccccc12 [Example 19, 2-(3'-nitrophenyl)quinoline-4-carbonylguanidine]	22.3
Cc1c(-c2ccccc2)nc2ccccc2c1C(=O)N=C(N)N [Example 21, 2-phenyl-3-methylquinoline-4-carbonylguanidine]	1.5
Cc1cc(Cl)cc2c(C(=O)N=C(N)N)cc(-c3ccccc3)nc12 [Example 32, 2-phenyl-6-chloro-8-methylquinoline-4-carbonylguanidine]	28.6
COc1cc(OC)c2c(C(=O)N=C(N)N)cc(-c3ccccc3)nc2c1 [Example 36, 2-phenyl-5,7-dimethoxyquinoline-4-carbonylguanidine]	53.2
COc1cc(OC)c2c(C(=O)N=C(N)N)cc(-c3ccccc3C)nc2c1 [Example 37, 2-(2'-methylphenyl)-5,7-dimethoxyquinoline-4-carbonylguanidine]	70.8
COc1cc2nc(-c3ccccc3C)cc(C(=O)N=C(N)N)c2cc1OC [Example 39, 2-(2'-methylphenyl)-6,7-dimethoxyquinoline-4-carbonylguanidine]	3.4
COc1ccc(OC)c2c(C(=O)N=C(N)N)cc(-c3ccccc3C)nc12 [Example 42, 2-(2'-methylphenyl)-5,8-dimethoxyquinoline-4-carbonylguanidine]	72.7
COc1ccc2c(C(=O)N=C(N)N)cc(-c3ccccc3C)nc2c1OC [Example 43, 2-(2'-methylphenyl)-7,8-dimethoxyquinoline-4-carbonylguanidine]	28
COCOc1ccc2c(C(=O)N=C(N)N)cc(-c3ccccc3C)nc2c1 [Example 45, 2-(2'-methylphenyl)-7-methoxymethyloxyquinoline-4-carbonylguanidine]	35
Cc1ccccc1-c1cc(C(=O)N=C(N)N)c2ccc(O)cc2n1 [Example 46, 2-(2'-methylphenyl)-7-hydroxyquinoline-4-carbonylguanidine]	39.3

More lines, now with the values ahead:

inhibition at 0.1 µM [%]	Structure (SMILES)
5.2	NC(N)=NC(=O)c1cc(-c2ccccc2)nc2ccccc12 [Example 1, 2-phenylquinoline-4-carbonylguanidine]
21.2	Cc1cccc(-c2cc(C(=O)N=C(N)N)c3ccccc3n2)c1 [Example 3, 2-(3'-methylphenyl)quinoline-4-carbonylguanidine]
36.2	NC(N)=NC(=O)c1cc(-c2cccc(N)c2)nc2ccccc12 [Example 20, 2-(3'-aminophenyl)quinoline-4-carbonylguanidine]
28.9	Cc1ccc2nc(-c3ccccc3)cc(C(=O)N=C(N)N)c2c1 [Example 22, 2-phenyl-6-methylquinoline-4-carbonylguanidine]
2.8	Cc1ccc2c(C(=O)N=C(N)N)cc(-c3ccccc3)nc2c1 [Example 23, 2-phenyl-7-methylquinoline-4-carbonylguanidine]
8.1	Cc1cccc2c(C(=O)N=C(N)N)cc(-c3ccccc3)nc12 [Example 24, 2-phenyl-8-methylquinoline-4-carbonylguanidine]
33.7	NC(N)=NC(=O)c1cc(-c2ccccc2)nc2cccc(Cl)c12 [Example 28, 2-phenyl-5-chloroquinoline-4-carbonylguanidine]
0	NC(N)=NC(=O)c1cc(-c2ccccc2)nc2ccc(Cl)cc12 [Example 29, 2-phenyl-6-chloroquinoline-4-carbonylguanidine]
12	NC(N)=NC(=O)c1cc(-c2ccccc2)nc2c(Cl)cccc12 [Example 31, 2-phenyl-8-chloroquinoline-4-carbonylguanidine]
29.8	COc1ccc2c(C(=O)N=C(N)N)cc(-c3ccccc3)nc2c1 [Example 34, 2-phenyl-7-methoxyquinoline-4-carbonylguanidine]
47.4	COc1cccc2c(C(=O)N=C(N)N)cc(-c3ccccc3)nc12 [Example 35, 2-phenyl-8-methoxyquinoline-4-carbonylguanidine]
18.3	COc1cc(OC)c2nc(-c3ccccc3)cc(C(=O)N=C(N)N)c2c1 [Example 40, 2-phenyl-6,8-dimethoxyquinoline-4-carbonylguanidine]
28.4	COCCOc1cccc2c(C(=O)N=C(N)N)cc(-c3ccccc3)nc12 [Example 44, 2-phenyl-8-methoxyethyloxyquinoline-4-carbonylguanidine]
30.6	NC(N)=NC(=O)c1cc(-c2ccccc2)nc2c(N)cccc12 [Example 48, 2-phenyl-8-aminoquinoline-4-carbonylguanidine]
20.8	CC(=O)Nc1cccc2c(C(=O)N=C(N)N)cc(-c3ccccc3)nc12 [Example 49, 2-phenyl-8-acetylaminoquinoline-4-carbonylguanidine]
46.2	CS(=O)(=O)Nc1cccc2c(C(=O)N=C(N)N)cc(-c3ccccc3)nc12 [Example 50, 2-phenyl-8-methanesulfonylaminoquinoline-4-carbonylguanidine]

same assay, conditions: Conc. 1 μM, read-out: Percent NHE inhibition (%)

Structure (SMILES)	inhibition at 1 µM [%]
Cc1ccc(-c2cc(C(=O)N=C(N)N)c3ccccc3n2)cc1 [Example 2, 2-(4'-methylphenyl)quinoline-4-carbonylguanidine]	41.4
Cc1ccccc1-c1cc(C(=O)N=C(N)N)c2ccccc2n1 [Example 4, 2-(2'-methylphenyl)quinoline-4-carbonylguanidine]	65.6
CC(C)c1ccccc1-c1cc(C(=O)N=C(N)N)c2ccccc2n1 [Example 5, 2-(2'-isopropylphenyl)quinoline-4-carbonylguanidine]	42.3
Cc1ccc(-c2cc(C(=O)N=C(N)N)c3ccccc3n2)c(C)c1 [Example 6, 2-(2',4'-dimethylphenyl)quinoline-4-carbonylguanidine]	55.3
Cc1ccc(-c2cc(C(=O)N=C(N)N)c3ccccc3n2)cc1C [Example 7, 2-(3',4'-dimethylphenyl)quinoline-4-carbonylguanidine]	38.8
Cc1cc(C)c(-c2cc(C(=O)N=C(N)N)c3ccccc3n2)c(C)c1 [Example 8, 2-(2',4',6'-trimethylphenyl)quinoline-4-carbonylguanidine]	36.3
NC(N)=NC(=O)c1cc(-c2ccccc2C(F)(F)F)nc2ccccc12 [Example 11, 2-(2'-trifluoromethylphenyl)quinoline-4-carbonylguanidine]	46.1
NC(N)=NC(=O)c1cc(-c2ccc(F)cc2)nc2ccccc12 [Example 13, 2-(4'-fluorophenyl)quinoline-4-carbonylguanidine]	39.8
NC(N)=NC(=O)c1cc(-c2ccccc2Cl)nc2ccccc12 [Example 14, 2-(2'-chlorophenyl)quinoline-4-carbonylguanidine]	34.3
NC(N)=NC(=O)c1cc(-c2cccc([N+](=O)[O-])c2)nc2ccccc12 [Example 19, 2-(3'-nitrophenyl)quinoline-4-carbonylguanidine]	35.6
Cc1c(-c2ccccc2)nc2ccccc2c1C(=O)N=C(N)N [Example 21, 2-phenyl-3-methylquinoline-4-carbonylguanidine]	45
Cc1cc(Cl)cc2c(C(=O)N=C(N)N)cc(-c3ccccc3)nc12 [Example 32, 2-phenyl-6-chloro-8-methylquinoline-4-carbonylguanidine]	35.7
COc1cc(OC)c2c(C(=O)N=C(N)N)cc(-c3ccccc3)nc2c1 [Example 36, 2-phenyl-5,7-dimethoxyquinoline-4-carbonylguanidine]	69.9
COc1cc(OC)c2c(C(=O)N=C(N)N)cc(-c3ccccc3C)nc2c1 [Example 37, 2-(2'-methylphenyl)-5,7-dimethoxyquinoline-4-carbonylguanidine]	84.2
COc1cc2nc(-c3ccccc3C)cc(C(=O)N=C(N)N)c2cc1OC [Example 39, 2-(2'-methylphenyl)-6,7-dimethoxyquinoline-4-carbonylguanidine]	41.5
COc1ccc(OC)c2c(C(=O)N=C(N)N)cc(-c3ccccc3C)nc12 [Example 42, 2-(2'-methylphenyl)-5,8-dimethoxyquinoline-4-carbonylguanidine]	89.1
COc1ccc2c(C(=O)N=C(N)N)cc(-c3ccccc3C)nc2c1OC [Example 43, 2-(2'-methylphenyl)-7,8-dimethoxyquinoline-4-carbonylguanidine]	37.6
COCOc1ccc2c(C(=O)N=C(N)N)cc(-c3ccccc3C)nc2c1 [Example 45, 2-(2'-methylphenyl)-7-methoxymethyloxyquinoline-4-carbonylguanidine]	46.5
Cc1ccccc1-c1cc(C(=O)N=C(N)N)c2ccc(O)cc2n1 [Example 46, 2-(2'-methylphenyl)-7-hydroxyquinoline-4-carbonylguanidine]	48.8

Other lines, results leading:

inhibition at 1 µM [%]	Structure (SMILES)
52.8	NC(N)=NC(=O)c1cc(-c2ccccc2)nc2ccccc12 [Example 1, 2-phenylquinoline-4-carbonylguanidine]
59.8	Cc1cccc(-c2cc(C(=O)N=C(N)N)c3ccccc3n2)c1 [Example 3, 2-(3'-methylphenyl)quinoline-4-carbonylguanidine]
42.2	NC(N)=NC(=O)c1cc(-c2cccc(N)c2)nc2ccccc12 [Example 20, 2-(3'-aminophenyl)quinoline-4-carbonylguanidine]
57.9	Cc1ccc2nc(-c3ccccc3)cc(C(=O)N=C(N)N)c2c1 [Example 22, 2-phenyl-6-methylquinoline-4-carbonylguanidine]
49.8	Cc1ccc2c(C(=O)N=C(N)N)cc(-c3ccccc3)nc2c1 [Example 23, 2-phenyl-7-methylquinoline-4-carbonylguanidine]
50	Cc1cccc2c(C(=O)N=C(N)N)cc(-c3ccccc3)nc12 [Example 24, 2-phenyl-8-methylquinoline-4-carbonylguanidine]
63.3	NC(N)=NC(=O)c1cc(-c2ccccc2)nc2cccc(Cl)c12 [Example 28, 2-phenyl-5-chloroquinoline-4-carbonylguanidine]
38.6	NC(N)=NC(=O)c1cc(-c2ccccc2)nc2ccc(Cl)cc12 [Example 29, 2-phenyl-6-chloroquinoline-4-carbonylguanidine]
57	NC(N)=NC(=O)c1cc(-c2ccccc2)nc2c(Cl)cccc12 [Example 31, 2-phenyl-8-chloroquinoline-4-carbonylguanidine]
53	COc1ccc2c(C(=O)N=C(N)N)cc(-c3ccccc3)nc2c1 [Example 34, 2-phenyl-7-methoxyquinoline-4-carbonylguanidine]
63.6	COc1cccc2c(C(=O)N=C(N)N)cc(-c3ccccc3)nc12 [Example 35, 2-phenyl-8-methoxyquinoline-4-carbonylguanidine]
31	COc1cc(OC)c2nc(-c3ccccc3)cc(C(=O)N=C(N)N)c2c1 [Example 40, 2-phenyl-6,8-dimethoxyquinoline-4-carbonylguanidine]
62.9	COCCOc1cccc2c(C(=O)N=C(N)N)cc(-c3ccccc3)nc12 [Example 44, 2-phenyl-8-methoxyethyloxyquinoline-4-carbonylguanidine]
41.7	NC(N)=NC(=O)c1cc(-c2ccccc2)nc2c(N)cccc12 [Example 48, 2-phenyl-8-aminoquinoline-4-carbonylguanidine]
51.2	CC(=O)Nc1cccc2c(C(=O)N=C(N)N)cc(-c3ccccc3)nc12 [Example 49, 2-phenyl-8-acetylaminoquinoline-4-carbonylguanidine]
66.2	CS(=O)(=O)Nc1cccc2c(C(=O)N=C(N)N)cc(-c3ccccc3)nc12 [Example 50, 2-phenyl-8-methanesulfonylaminoquinoline-4-carbonylguanidine]

test system: not listed separately; assay: Toxicity test, mortality of mice after 24 hours; settings: mouse, in vivo, iv, 100 mg/kg (i.v.), 3 mice
Experimental: The test compound was administered to a ddy-strain male mouse, and the toxicity was examined. The test compound was administered intravenously (i.v.) in a dose of 100 mg/kg, and the toxicity was evaluated in terms of mortality of mice after 24 hours of the administration (number of specimens: one group consisting of 3 mice).

Structure (SMILES)	mortality at 24 h [%]
COc1ccc(OC)c2c(C(=O)N=C(N)N)cc(-c3ccccc3C)nc12 [Example 42, 2-(2'-methylphenyl)-5,8-dimethoxyquinoline-4-carbonylguanidine]	0
